Data taken from patent US20230407243A1, “GENETIC PLATFORM TO INVESTIGATE THE FUNCTIONS OF BACTERIAL DRUG EFFLUX PUMPS” (priority 2022, published 2023).

Legend:
Assay type in all cases: cell-based, Escherichia coli
E. coli EKO-35 = experiment: microbe, parasite or virus in culture
Protocol: (§1) Single colonies were used to inoculate 3 mL of LB followed by incubation at 37° C. for 18 h with aeration at 220 rpm. The bacterial cells were harvested by centrifugation and resuspended in phosphate buffered saline (PBS) ([pH 7.4], 137 mM NaCl (Bioshop), 2.7 mM KCl (Bioshop), 10 mM Na2PO4 (Bioshop) and 1.8 mM K2PO4) to an OD600 nm˜1.0, followed by 1/2000 dilution into MHB II.
(§2) To a 384-well microtiter plate (Corning, untreated polystyrene), 500 nL of compound was dispensed, in duplicate, and serially titrated 2-fold using an Echo 550 acoustic liquid dispenser (Labcyte Inc.). […] As a solvent control, 500 nL of DMSO was applied to wells that contained no compound. Using a multichannel pipette, 50 μL of the prepared bacterial inoculum was applied to each well. To enable background correction post-incubation, the OD600 nm was measured (Biotek Synergy Neo2 microplate reader) prior to incubation. The plates were incubated at 37° C. with aeration at 900 rpm for 18 h. The plates were equilibrated to room temperature and the OD600 nm measured using a BioTek Synergy Neo2 microplate reader. Data was analyzed in both Prism (GraphPad, Version 9.2.0) and Microsoft Excel (Version 16.53). Raw data were input into Microsoft Excel and the pre-incubation OD600 nm measurements were subtracted from the post-incubation OD600 nm measurements. These corrected measurements were input into Prism 9 as a grouped analysis. […] All other MIC values were adjusted accordingly and visualized using the single-color scale grouped heat map function. Identification of compound chemical properties was achieved using DataWarrior (Version 5.5.0). Using PubChem, the SMILES chemical notation for each compound was obtained and compiled in Microsoft Excel. The resulting spreadsheet was input into DataWarrior and properties were calculated from the compound chemical structures.

E. coli ΔtolC = experiment: microbe, parasite or virus in culture; settings: technical duplicate
Protocol: as §1, §2

[1] = test system: wild-type E. coli K-12 str. BW25113; experiment: microbe, parasite or virus in culture; settings: technical duplicate
Protocol: as §1, §2

EKO-35 araC::macAB Pore = experiment: MIC susceptibility profiling, porinated efflux platform
Protocol: (§3) For genomic integration of the pore, the fhuA ΔC/Δ4L gene and the adjacent gentamicin resistance cassette were amplified using a high-fidelity polymerase and the fhuA_40_Up/gImS_3680_Low primers (Table 4). Integration of the pore gene was performed as described above. The pore gene was introduced into the intergenic region between the glmS and pstS genes, with gene expression under the control of a constitutive promoter (Kearse, M. et al., 2012). Genomic integrations were verified using PCR (Primers: pstS_520_Up/glmS_3680_Low, Table 4). Successful integrations were transformed with pCP20 to remove the gentamicin resistance cassette as previously described. Activity of the pore was confirmed through susceptibility testing with the large antibiotic vancomycin prior to phenotypic profiling and further susceptibility testing.
as §1, §2

EKO-35 araC::acrEF Pore = experiment: as above
Protocol: as §3, §1, §2

EKO-35 araC::emrKY Pore = experiment: as above
Protocol: as §3, §1, §2

EKO-35 araC::mdtEF Pore = experiment: as above
Protocol: as §3, §1, §2

wild-type (WT) K-12-Pore = experiment: microbe, parasite or virus in culture; settings: technical duplicate
Protocol: as §3, §1, §2

ΔtolC-Pore = experiment: microbe, parasite or virus in culture; settings: technical duplicate
Protocol: as §3, §1, §2

EKO-35 araC::emrAB = experiment: MIC susceptibility profiling, efflux platform
Protocol: as §1, §2

EKO-35 araC::mdtEF = experiment: MIC susceptibility profiling, efflux platform
Protocol: as §1, §2

EKO-35 araC::acrBD408A = experiment: MIC susceptibility profiling, efflux platform
Protocol: as §1, §2

EKO-35 araC::macAB = experiment: MIC susceptibility profiling, efflux platform
Protocol: as §1, §2

EKO-35 araC::acrB = experiment: MIC susceptibility profiling, efflux platform
Protocol: as §1, §2

EKO-35 araC::mdtBC = experiment: MIC susceptibility profiling, efflux platform
Protocol: as §1, §2

EKO-35 araC::emrKY = experiment: MIC susceptibility profiling, efflux platform
Protocol: as §1, §2

EKO-35 araC::acrEF = experiment: MIC susceptibility profiling, efflux platform
Protocol: as §1, §2

EKO-35 araC::acrD = experiment: MIC susceptibility profiling, efflux platform
Protocol: as §1, §2

[2] = test system: EKO-35 araC::mexCD (MexCD from P. aeruginosa); experiment: MIC susceptibility profiling, efflux platform
Protocol: as §1, §2

[3] = Table 13A, non-porinated, technical duplicate
[4] = Table 14A, porinated, technical duplicate
[5] = Table 13B, non-porinated, technical duplicate

Q: Which “Fold change of MICs” value (E. coli EKO-35; EKO-35 compared to EKO-35 (reference)) does the source give for N#CC(C#N)=NNc1cccc(Cl)c1 [CCCP] here?
A: Its value is 1 fold.

Q: What about the “Minimum inhibitory concentration (MIC), EKO-35” value (E. coli EKO-35; Table 10, without pore, technical duplicate) of the same compound?
A: Its value is 12.5 µg/mL.

Q: What about the “Minimum Inhibitory Concentration, EKO-35” value (E. coli EKO-35; [3]) of the same compound?
A: The value was 12.5 µg/mL.

Q: And the “Minimum inhibitory concentration (MIC), ΔtolC” value (E. coli ΔtolC; Table 10, without pore)?
A: The value was 0.781 µg/mL.

Q: What about the “Minimum Inhibitory Concentration, ΔtolC” value (E. coli ΔtolC; Table 13A, non-porinated) of the same compound?
A: The value was 0.781 µg/mL.

Q: And the “Minimum inhibitory concentration (MIC), K-12” value ([1]; Table 10, without pore)?
A: The value was 25 µg/mL.

Q: And the “Minimum Inhibitory Concentration, K-12” value ([1]; Table 13A, non-porinated)?
A: The value was 25 µg/mL.

Q: What about the “Fold changes of MICs” value (EKO-35 araC::macAB Pore; EKO-35 araC::macAB Pore compared to EKO-35-Pore) of the same compound?
A: Its value is 1 fold.

Q: And the Minimum inhibitory concentration (EKO-35 araC::macAB Pore; EKO-35 araC::macAB Pore, technical duplicate)?
A: Its Minimum inhibitory concentration is 6.25 µg/mL.

Q: And the “Fold changes of MICs” value (EKO-35 araC::acrEF Pore; EKO-35 araC::acrEF Pore compared to EKO-35-Pore)?
A: Its value is 1 fold.

Q: And the “Minimum inhibitory concentration, EKO-35 araC::acrEF Pore” value (EKO-35 araC::acrEF Pore; [4])?
A: The value was 3.125 µg/mL.

Q: What about the “Fold changes of MICs” value (EKO-35 araC::emrKY Pore; EKO-35 araC::emrKY Pore compared to EKO-35-Pore) of the same compound?
A: The value was 1 fold.

Q: And the Minimum inhibitory concentration (EKO-35 araC::emrKY Pore; EKO-35 araC::emrKY Pore, technical duplicate)?
A: Its Minimum inhibitory concentration is 6.25 µg/mL.

Q: What about the “Fold changes of MICs” value (EKO-35 araC::mdtEF Pore; EKO-35 araC::mdtEF Pore compared to EKO-35-Pore) of the same compound?
A: The value was 1 fold.

Q: And the “Minimum inhibitory concentration, EKO-35 araC::mdtEF Pore” value (EKO-35 araC::mdtEF Pore; [4])?
A: The value was 6.25 µg/mL.

Q: What about the “Minimum inhibitory concentration (MIC), Pore K-12” value (wild-type (WT) K-12-Pore; Table 10, with pore) of the same compound?
A: Its value is 12.5 µg/mL.

Q: What about the “Minimum inhibitory concentration, K-12 (WT)-Pore” value (wild-type (WT) K-12-Pore; Table 14A, porinated) of the same compound?
A: Its value is 12.5 µg/mL.

Q: What about the “Minimum inhibitory concentration (MIC), Pore ΔtolC” value (ΔtolC-Pore; Table 10, with pore) of the same compound?
A: Its value is 0.391 µg/mL.

Q: And the “Minimum inhibitory concentration, ΔtolC-Pore” value (ΔtolC-Pore; Table 14A, porinated)?
A: The value was 0.391 µg/mL.

Q: What about the “Fold change of MICs” value (EKO-35 araC::emrAB; EKO-35 araC::emrAB compared to EKO-35) of the same compound?
A: Its value is 4 fold.

Q: What about the “efflux pump-mediated resistance vs EKO-35” value (EKO-35 araC::emrAB; EmrAB) of the same compound?
A: The value was “conferred resistance”.

Q: And the “Minimum Inhibitory Concentration, EKO-35 araC::emrAB” value (EKO-35 araC::emrAB; [5])?
A: The value was 50 µg/mL.

Q: What about the “Fold change of MICs” value (EKO-35 araC::mdtEF; EKO-35 araC::mdtEF compared to EKO-35) of the same compound?
A: Its value is 1 fold.

Q: And the “Minimum Inhibitory Concentration, EKO-35 araC::mdtEF” value (EKO-35 araC::mdtEF; [3])?
A: Its value is 12.5 µg/mL.

Q: And the “Fold change of MICs” value (EKO-35 araC::acrBD408A; EKO-35 araC::acrBD408A compared to EKO-35)?
A: Its value is 1 fold.

Q: What about the “Minimum Inhibitory Concentration, EKO-35 araC::acrBD408A” value (EKO-35 araC::acrBD408A; [5]) of the same compound?
A: The value was 12.5 µg/mL.

Q: And the “Fold change of MICs” value (EKO-35 araC::macAB; EKO-35 araC::macAB compared to EKO-35)?
A: Its value is 1 fold.

Q: What about the “Minimum Inhibitory Concentration, EKO-35 araC::macAB” value (EKO-35 araC::macAB; [5]) of the same compound?
A: The value was 12.5 µg/mL.

Q: And the “Fold change of MICs” value (EKO-35 araC::acrB; EKO-35 araC::acrB compared to EKO-35)?
A: The value was 1 fold.

Q: And the “Minimum Inhibitory Concentration, EKO-35 araC::acrB” value (EKO-35 araC::acrB; [3])?
A: The value was 12.5 µg/mL.

Q: What about the “Fold change of MICs” value (EKO-35 araC::mdtBC; EKO-35 araC::mdtBC compared to EKO-35) of the same compound?
A: The value was 1 fold.

Q: And the “Minimum Inhibitory Concentration, EKO-35 araC::mdtBC” value (EKO-35 araC::mdtBC; [5])?
A: Its value is 12.5 µg/mL.

Q: What about the “Fold change of MICs” value (EKO-35 araC::emrKY; EKO-35 araC::emrKY compared to EKO-35) of the same compound?
A: Its value is 1 fold.

Q: And the “Minimum Inhibitory Concentration, EKO-35 araC::emrKY” value (EKO-35 araC::emrKY; [5])?
A: The value was 12.5 µg/mL.

Q: What about the “Fold change of MICs” value (EKO-35 araC::acrEF; EKO-35 araC::acrEF compared to EKO-35) of the same compound?
A: The value was 1 fold.

Q: What about the “Minimum Inhibitory Concentration, EKO-35 araC::acrEF” value (EKO-35 araC::acrEF; [3]) of the same compound?
A: Its value is 12.5 µg/mL.

Q: And the “Fold change of MICs” value (EKO-35 araC::acrD; EKO-35 araC::acrD compared to EKO-35)?
A: The value was 1 fold.

Q: And the “Minimum Inhibitory Concentration, EKO-35 araC::acrD” value (EKO-35 araC::acrD; [3])?
A: Its value is 6.25 µg/mL.

Q: And the “Fold change of MICs” value ([2]; EKO-35 araC::mexCD compared to EKO-35)?
A: Its value is 1 fold.

Q: And the “Minimum Inhibitory Concentration, EKO-35 araC::mexCD” value [2, 5]?
A: Its value is 12.5 µg/mL.
